Molecular target: T1, human PDE2A1 (Homo sapiens, UniProt O00408)
T1 construct: GST; purchased BPS Bioscience (San Diego, Calif.) 60020; host or cells: insect cells
Assay: IMAP FP PDE selectivity panel, human PDE2A1
Type: biochemical
Settings: Lab B; read-out: Human PDE2 Ki (nM) Lab B
Method in brief: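 Human PDE2A1 tested alongside PDE1–11 by IMAP fluorescence polarization at room temperature. Substrate was 50 nM FAM-cAMP plus 1000 nM cGMP, buffer pH 7.2 with MgCl2 and DTT, enzyme set for 20% conversion. Ten 3-fold compound dilutions; 60 min reaction, then IMAP binding solution, 1 h, parallel/perpendicular fluorescence read.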

T1 sequence (O00408 1-920 isoform O00408-2): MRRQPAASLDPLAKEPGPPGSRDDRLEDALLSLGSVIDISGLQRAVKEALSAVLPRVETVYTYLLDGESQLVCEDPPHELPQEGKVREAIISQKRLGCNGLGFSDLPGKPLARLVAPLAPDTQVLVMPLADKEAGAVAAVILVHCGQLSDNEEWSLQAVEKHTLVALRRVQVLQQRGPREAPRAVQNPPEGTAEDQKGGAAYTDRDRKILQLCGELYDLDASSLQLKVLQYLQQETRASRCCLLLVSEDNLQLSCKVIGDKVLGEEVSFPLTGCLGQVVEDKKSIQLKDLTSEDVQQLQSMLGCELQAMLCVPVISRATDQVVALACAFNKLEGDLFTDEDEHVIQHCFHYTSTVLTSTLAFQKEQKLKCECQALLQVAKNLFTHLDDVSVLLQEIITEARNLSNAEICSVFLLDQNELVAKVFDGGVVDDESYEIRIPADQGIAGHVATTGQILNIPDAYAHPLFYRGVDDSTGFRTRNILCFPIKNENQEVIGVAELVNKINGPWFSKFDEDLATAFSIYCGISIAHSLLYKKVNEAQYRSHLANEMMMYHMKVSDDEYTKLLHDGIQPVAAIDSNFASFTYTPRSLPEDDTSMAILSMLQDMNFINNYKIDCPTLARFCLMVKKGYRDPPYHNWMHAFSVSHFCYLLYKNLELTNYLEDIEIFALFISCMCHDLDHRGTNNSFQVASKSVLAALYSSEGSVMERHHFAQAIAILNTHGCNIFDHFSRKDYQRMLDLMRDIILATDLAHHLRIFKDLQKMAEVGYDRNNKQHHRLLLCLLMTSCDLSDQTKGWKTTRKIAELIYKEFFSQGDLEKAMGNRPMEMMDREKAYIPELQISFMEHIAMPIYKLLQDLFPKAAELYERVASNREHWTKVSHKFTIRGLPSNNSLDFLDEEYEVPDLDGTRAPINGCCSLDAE

Row | Compound | Ki [nM]
1 | C[C@@H](Nc1cc(CO)cc2ncnn12)c1ccc(C(F)(F)F)cc1 [Example 267, [5-({(1R)-1-[4-(Trifluoromethyl)phenyl]ethyl}amino)[1,2,4]triazolo[1,5-a]pyridin-7-yl] methanol] | 236
2 | C[C@H](Nc1cc(CO)cc2ncnn12)c1ccc(C(F)(F)F)cc1 [Example 268, [5-({(1S)-1-[4-(Trifluoromethyl)phenyl]ethyl}amino)[1,2,4]triazolo[1,5-a]pyridin-7-yl] methanol] | 2080
3 | CC[C@@H](Nc1cc(CO)cc2ncnn12)c1ccc(C(F)(F)F)c(F)c1 [Example 269, [5-({(1R)-1-[3-Fluoro-4-(trifluoromethyl)phenyl]propyl}amino)[1,2,4]triazolo [1,5-a]pyridin-7-yl] methanol] | 181
4 | OCc1cc(NC2(c3ccc(C(F)(F)F)cc3F)CC2)n2ncnc2c1 [Example 270, [5-({1-[2-Fluoro-4-(trifluoromethyl)phenyl]cyclopropyl}amino)[1,2,4]triazolo[1,5-a]pyridin-7-yl] methanol] | 101
5 | C[C@@H](Nc1cc(CO)cc2ncnn12)c1ccc(OC(F)(F)F)cc1 [Example 271, [5-({(1R)-1-[4-(Trifluoromethoxy)phenyl]ethyl}amino)[1,2,4]triazolo[1,5-a]pyridin-7-yl] methanol] | 530
6 | C[C@@H](Nc1cc(CO)cc2ncnn12)c1ccc(C(F)(F)F)c(F)c1 [Example 272, [5-({(1R)-1-[3-Fluoro4-(trifluoromethyl)phenyl]ethyl}amino)[1,2,4]triazolo[1,5-a]pyridin-7-yl]methanol] | 121
7 | CC(C)(O)[C@@H](Nc1cc(CO)cc2ncnn12)c1ccc(OC(F)(F)F)cc1F [Example 273, (1S)-1-[2-Fluoro-4-(trifluoromethoxy)phenyl]-1-{[7-(hydroxymethyl)[1,2,4]triazolo [1,5-a]pyridin-5-yl]amino}-2-methylpropan-2-ol] | 102
8 | CC(O)c1cc(NC2(c3ccc(C(F)(F)F)c(F)c3)CC2)n2ncnc2c1 (stereo not shown) [Example 275, 1-(5-((1-(3-Fluoro-4-(trifluoromethyl)phenyl)cyclopropyl)amino)-[1,2,4]triazolo[1,5-a]pyridin-7-yl)ethanol] | 111
9 | CC(C)(O)[C@@H](Nc1cc(C(F)(F)F)cc2ncnn12)c1ccc(C(F)(F)F)cc1 [Example 277, (1S)-2-Methyl-1-[4-(trifluoromethyl)phenyl]-1-{[7-(trifluoromethyl)[1,2,4]triazolo [1,5-a]pyridin-5-yl]amino} propan-2-ol] | 87
10 | CC(C)(O)[C@@H](Nc1cc(C(F)(F)F)cc2ncnn12)c1ccc(OC(F)(F)F)cc1F [Example 278, (1S)-1-[2-Fluoro-4-(trifluoromethoxy)phenyl]-2-methyl-1-{[7-(trifluoromethyl) [1,2,4]triazolo[1,5α]pyridin-5-yl]amino}propan-2-ol] | 92
11 | CC(C)(O)[C@H](Nc1cc(C(F)F)cc2ncnn12)c1ccc(S(F)(F)(F)(F)F)cc1 [Example 283, (1R)-1-{[7-(Difluoromethyl) [1,2,4]triazolo[1,5-a]pyridin-5-yl]amino}-2-methyl-1-[4-(pentafluoro-λ^6-sulfanyl)phenyl]propan-2-ol] | 498
12 | CC(C)(C)[C@@H](Nc1cncc2ncnn12)c1ccc(C(F)(F)F)c(F)c1 [Example 284] | 156
13 | CC(C)(O)[C@@H](Nc1cncc2ncnn12)c1ccc(OC(F)(F)F)c(F)c1 [Example 286, (1S)-1-[3-Fluoro-4-(trifluoromethoxy)phenyl]-2-methyl-1-([1,2,4]triazolo[1,5-a]pyrazin-5-ylamino)propan-2-ol] | 209
14 | CC(C)(O)[C@@H](Nc1cncc2ncnn12)c1ccc(C(F)(F)F)cc1 [Example 287, (1S)-2-Methyl-1-([1,2,4]triazolo[1,5-a]pyrazin-5-ylamino)-1-[4-(trifluoromethyl)phenyl]propan-2-ol] | 150
15 | C[C@@H](Nc1cncc2ncnn12)c1ccc(C(F)(F)F)cc1 [Example 288] | 221
16 | C[C@H](Nc1cncc2ncnn12)c1ccc(C(F)(F)F)cc1 [Example 289] | > 2960
17 | FS(F)(F)(F)(F)c1ccc(C2(Nc3cncc4ncnn34)CC2)cc1 [Example 290, N-{1-[4-(Pentafluoro-λ^6-sulfanyl)phenyl]cyclopropyl} [1,2,4]triazolo[1,5-a]pyrazin-5-amine] | 90
18 | CC(C)(O)[C@@H](Nc1cc(C(F)(F)F)cc2nc(N)nn12)c1ccc(C(F)(F)F)cc1 [Example 294, (S)-1-((2-Amino-7-(trifluoromethyl)-[1,2,4]triazolo[1,5-a]pyridin-5-yl)amino)-2-methyl-1-(4-(trifluoromethyl)phenyl)propan-2-ol] | 678
19 | (R or S)-2,2-Dimethyl-3-(3-methyl-4-(trifluoromethoxy)phenyl)-3-(5-methyl-[1,2,4]triazolo[1,5-a]pyrimidin-7-ylamino)propan-1-ol [Example 231] | 7.3

The remaining lines, values ahead:

Row | Ki [nM] | Compound
20 | 82 | Cc1cc(N[C@@H](c2ccc(C(F)(F)F)cc2)C(C)(C)O)n2ncnc2c1 [Example 265, (1S)-2-Methyl-1-[(7-methyl[1,2,4]triazolo[1,5-a]pyridin-5-yl)amino]-1-[4-(trifluoromethyl)phenyl]propan-2-ol]
21 | 13 | OCc1cc(NC2(c3ccc(C(F)(F)F)c(F)c3)CC2)n2ncnc2c1 [Example 266, (5-((1-(3-Fluoro-4-(trifluoromethyl)phenyl)cyclopropyl)amino)-[1,2,4]triazolo[1,5-a]pyridin-7-yl)methanol]
22 | 11 | Fc1cc(C2(Nc3cc(C(F)F)cc4ncnn34)CC2)ccc1C(F)(F)F [Example 274, 7-(Difluoromethyl)-N-(1-(3-fluoro-4-(trifluoromethy)phenyl)cyclopropyl)-[1,2,4]triazol-[1,5-a]pyridin-5-amine]
23 | 68 | Fc1cc(C2(Nc3cc(C(F)(F)F)cc4ncnn34)CC2)ccc1C(F)(F)F [Example 276, N-(1-(3-fluoro-4-(trifluoromethyl)phenyl)cyclopropyl)-7-(trifluoromethyl)-[1,2,4]triazolo[1,5-a]pyridin-5-amine]
24 | 41 | CC(C)(O)[C@@H](Nc1cc(C(F)F)cc2ncnn12)c1ccc(OC(F)(F)F)c(F)c1 [Example 279, (S)-1-((7-(Difluoromethyl)-[1,2,4]triazolo[1,5-a]pyridin-5-yl)amino)-1-(3-fluoro-4-(trifluoromethoxy)phenyl)-2-methylpropan-2-ol]
25 | 20 | CC(C)(O)[C@@H](Nc1cc(C(F)F)cc2ncnn12)c1ccc(C(F)(F)F)cc1 [Example 280, (1S)-1-{[7-(Difluoromethyl) [1,2,4]triazolo[1,5-a]pyridin-5-yl]amino}-1-[4-(trifluoromethyl)phenyl]-2-methylpropan-2-ol]
26 | 40 | CC(C)(O)[C@@H](Nc1cc(C(F)F)cc2ncnn12)c1ccc(OC(F)(F)F)cc1F [Example 281, (1S)-1-{[7-(Difluoromethyl) [1,2,4]triazolo[1,5-a]pyridin-5-yl]amino}-1-[2-fluoro-4-(trifluoromethoxy)phenyl]-2-methylpropan-2-ol]
27 | 7.8 | CC(C)(O)[C@@H](Nc1cc(C(F)F)cc2ncnn12)c1ccc(S(F)(F)(F)(F)F)cc1 [Example 282, (1S)-1-{[7-(Difluoromethyl) [1,2,4]triazolo[1,5-a]pyridin-5-yl]amino}-2-methyl-1-[4-(pentafluoro-λ^6-sulfanyl)phenyl]propan-2-ol]
28 | 22 | Fc1cc(C2(Nc3cncc4ncnn34)CC2)ccc1C(F)(F)F [Example 285, N-{1-[3-Fluoro-4-(trifluoromethyl)phenyl]cyclopropyl}[1,2,4]triazolo [1,5-a]pyrazin-5-amine]

— patent US10357481B2 (MERCK SHARP & DOHME CORP., priority 2015, dated 2019)
